# Reference: publication PMC4961418, “A Selective Irreversible Inhibitor of Furin Does Not Prevent Pseudomonas Aeruginosa Exotoxin A-Induced Airway Epithelial Cytotoxicity” (PLoS ONE, 2016)
# Side chains are listed from the residue outwards. Peptide text beside a SMILES is read from it. * marks the point of attachment. Biotin = O=C1N[C@H]2[C@H](CS[C@H]2CCCCC(=O)*)N1; X1 = N=C(N)NCCCC(N*)P(=O)(Oc1ccccc1)Oc1ccccc1; Palmitoyl = CCCCCCCCCCCCCCCC(=O)*; Ahx = NCCCCCC(=O)O
# Tests used:
# Format in all cases: biochemical
# recombinant human furin = biological target: T1, recombinant human furin (Homo sapiens, UniProt P09958); experiment: Second order rate constant determination, steady-state fluorimetric assay (pERTKR-NH2Mec); details: irreversible inhibitor kinetics, 50 μM pERTKR-NH2Mec, 37°C, pH 7.4
# T1 construct: purchased R&D Systems
# T1 sequence (P09958 108-794): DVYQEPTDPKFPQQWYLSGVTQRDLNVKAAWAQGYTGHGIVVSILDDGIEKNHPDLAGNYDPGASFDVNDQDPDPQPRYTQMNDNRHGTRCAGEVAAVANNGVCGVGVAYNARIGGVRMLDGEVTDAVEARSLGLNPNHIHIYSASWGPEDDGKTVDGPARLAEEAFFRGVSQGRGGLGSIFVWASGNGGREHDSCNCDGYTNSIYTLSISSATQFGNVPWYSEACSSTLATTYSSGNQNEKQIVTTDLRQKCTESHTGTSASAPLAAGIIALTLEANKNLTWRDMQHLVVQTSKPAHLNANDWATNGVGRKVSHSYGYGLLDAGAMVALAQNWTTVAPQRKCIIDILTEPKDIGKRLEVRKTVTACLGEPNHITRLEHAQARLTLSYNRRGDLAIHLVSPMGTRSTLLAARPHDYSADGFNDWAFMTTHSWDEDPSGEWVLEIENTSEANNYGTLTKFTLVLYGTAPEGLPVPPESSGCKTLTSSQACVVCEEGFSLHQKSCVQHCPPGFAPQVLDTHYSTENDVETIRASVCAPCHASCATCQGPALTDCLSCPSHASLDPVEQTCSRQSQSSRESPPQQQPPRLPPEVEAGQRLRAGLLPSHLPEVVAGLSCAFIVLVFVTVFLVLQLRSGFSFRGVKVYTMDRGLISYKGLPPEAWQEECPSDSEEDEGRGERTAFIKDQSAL
# Procedure: A range of final inhibitor concentrations (at least 5) were prepared from a 10 mM stock solution of QUB-F1 (in N,N-dimethyformamide (DMF)). The fluorogenic substrate, p-Glu-Arg-Thr-Lys-Arg-NH2Mec (pERTKR-AMC), was diluted in assay buffer (25 mM Tris/HCl containing 1 mM CaCl2, pH 7.4) and used at a fixed concentration of 50 μM throughout. All inhibition assays were performed in microtitre plates maintained at 37°C in a final volume of 100 μl. The reaction was initiated by the addition of recombinant human furin (0.01 μg/well) and the rate of substrate hydrolysis continuously recorded at λex 360 nm, λem 480 nm, over a period of 90 minutes using a FLUOstar Optima microplate reader (BMG Labtech). The resultant inhibition progress curve for QUB-F1 was then analysed according to the kinetic models developed by Tian and Tsou and Walker and Elmore, for irreversible inhibitors, using GRAFIT (Erithacus Software). The inhibitor constant Ki, the apparent first order rate constant k3, and over all second-order rate constant (k3/Ki) for QUB-F1 against furin was determined, from a plot of 1/A against [I] (where A is the apparent second-order rate constant for irreversible inhibition determined for each inhibitor concentration [I]). The determination of Km and Vmax were also determined separately by fitting initial rates of hydrolysis to substrate concentration, according to Michaelis-Menten kinetics, also using GRAFIT (Erithacus Software). The inhibitor constant Ki, the apparent first order rate constant k3, and the overall second-order rate constant (k3/Ki) for QUB-F1 against furin were determined, from a plot of 1/A against [I] (where A is the apparent second-order rate constant for irreversible inhibition determined for each inhibitor concentration [I]).
# The ability of QUB-F1 to inhibit recombinant human furin was assessed using a steady-state fluorimetric assay employing the cognate fluorescent substrate (pERTKR-NH2Mec). The k3, Ki and k3/Ki values where determined as follows: Ki 9.33 (± 0.32) x 10^−7 M, k3 0.016 (± 0.004) min^-1 and k3/Ki […] M^-1 min^-1. […]
# cathepsin G = biological target: T2, cathepsin G (Homo sapiens, UniProt P08311); experiment: Fluorogenic protease activity assay, cathepsin G; details: 10 μM inhibitor, Suc-Ala-Ala-Pro-Phe-NH2Mec 50 μM, N = 3
# T2 construct: purchased Elastin Products, Missouri
# T2 sequence (P08311 21-255): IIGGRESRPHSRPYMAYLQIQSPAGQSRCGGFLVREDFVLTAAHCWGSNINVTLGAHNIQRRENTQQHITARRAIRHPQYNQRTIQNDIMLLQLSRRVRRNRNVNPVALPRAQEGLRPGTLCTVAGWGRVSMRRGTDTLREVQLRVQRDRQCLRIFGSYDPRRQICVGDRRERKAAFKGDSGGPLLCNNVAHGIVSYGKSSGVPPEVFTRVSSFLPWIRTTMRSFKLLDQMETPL
# Description: Recombinant human enzymes were sourced as follows: furin and matriptase (R&D Systems); prostasin (Sino Biological); trypsin and chymotrypsin (Sigma-Aldrich); factor Xa and neutrophil elastase (Merck Millipore) and proteinase-3 and cathepsin G (Elastin Products, Missouri). Fluorogenic substrates were sourced as follows: p-Glu-Arg-Thr-Lys-Arg-NH2Mec and Boc-Gln-Ala-Arg-NH2Mec (R&D Systems); Boc-Ile-Glu-Gly-Arg-NH2Mec (Bachem); Z-Gly-Gly-Arg-NH2Mec, MeOSuc-Ala-Ala-Pro-Val-NH2Mec and Suc-Ala-Ala-Pro-Phe-NH2Mec (Sigma-Aldrich). All chemicals and reagents for the synthesis of QUB-F1 were supplied by Sigma-Aldrich unless otherwise indicated. Fmoc-Lys(Boc)-SASRIN resin was sourced from Bachem. Fmoc-protected amino acids and HCTU were supplied by Merck Millipore.
# Recombinant protease activities were assessed using the cognate fluorogenic substrates (final concentration 50 μM) as follows: trypsin (Z-Gly-Gly-Arg-NH2Mec), prostasin and matriptase (Boc-Gln-Ala-Arg-NH2Mec), factor Xa (Boc-Ile-Glu-Gly-Arg-NH2Mec), neutrophil elastase and proteinase 3 (MeO-Suc-Ala-Ala-Pro-Val-NH2Mec), chymotrypsin and cathepsin G (Suc-Ala-Ala-Pro-Phe-NH2Mec). The rate of substrate hydrolysis in the presence or absence of furin inhibitors was assessed by continuous recording at λex 360 nm, λem 480 nm, over a period of 60 minutes using a FLUOstar Optima microplate reader (BMG Labtech). […]
# cathepsin B = cathepsin B (Homo sapiens, UniProt P07858); experiment: Cathepsin B activity assay; details: up to and including a concentration of 10 μM, N = 3
# Procedure: Fig 3 Comparison of QUB-F1 and furin I versus cathepsin B. Cathepsin B activity was assessed in the presence or absence of various concentrations of QUB-F1 or furin I (N = 3). Data represent mean ± s.e.m.
structure (smiles),measurement,setting,value
"CCCCCCCCCCCCCCCC(=O)N[C@@H](CCCCNC(=O)CCCCCNC(=O)CCCC[C@@H]1SC[C@@H]2NC(=O)N[C@@H]21)C(=O)N[C@@H](CCCNC(=N)N)C(=O)N[C@H](C(=O)N[C@@H](CCCCN)C(=O)NC(CCCNC(=N)N)P(=O)(Oc1ccccc1)Oc1ccccc1)C(C)C (stereo partly drawn) [QUB-F1, N^α-Pal-N^ω-(Biotinyl-Ahx)-Lys-RVKR^P(OPh)2] (Palmitoyl-K([Ahx-Biotin])RVK-X1)",Ki,recombinant human furin,0.933 µM
same,k3 (apparent first order rate constant),recombinant human furin,0.016 (± 0.004) min^-1
same,kinact/KI,recombinant human furin; read-out: k3/Ki (overall second-order rate constant) (converted),342 M⁻¹ s⁻¹
same,inhibition of cathepsin G,cathepsin G,Neither compound was found to inhibit
same,inhibitory action on cathepsin B,cathepsin B,no inhibitory action
